# Test results reported in ChEMBL document CHEMBL1240460, “Design, synthesis and antifungal activity of isosteric analogues of benzoheterocyclic N-myristoyltransferase inhibitors” (2010).
# Assays:
# Type in all cases: functional
# Candida albicans = assay: Antifungal activity against Candida albicans by serial dilution method
# Cryptococcus neoformans = assay: Antifungal activity against Cryptococcus neoformans by serial dilution method
# Aspergillus fumigatus = assay: Antifungal activity against Aspergillus fumigatus by serial dilution method
# Nannizzia gypsea = assay: Antifungal activity against Microsporum gypseum by serial dilution method
# Trichophyton rubrum = assay: Antifungal activity against Trichophyton rubrum by serial dilution method
# Candida parapsilosis = assay: Antifungal activity against Candida parapsilosis by serial dilution method; conditions: Lodderomyces parapsilosis
# Candida tropicalis = assay: Antifungal activity against Candida tropicalis by serial dilution method
Structure (SMILES),MIC80 (Candida albicans) [µg/mL],MIC80 (Cryptococcus neoformans) [µg/mL],MIC80 (Aspergillus fumigatus) [µg/mL],MIC80 (Nannizzia gypsea) [µg/mL],MIC80 (Trichophyton rubrum) [µg/mL],MIC80 (Candida parapsilosis) [µg/mL],MIC80 (Candida tropicalis) [µg/mL]
Clc1cccc(Cl)c1SCc1cc2c(OCCCNCc3cccnc3)cccc2[nH]1,64,64,> 128,4,16,,
Fc1ccc(OCc2nc3c(OCCCNCc4cccnc4)cccc3o2)cc1,16,16,> 64,,,1,1
CCOC(=O)c1oc2cccc(OCCCNCc3cccnc3)c2c1C,1,64,> 64,4,4,4,1
Fc1ccccc1OCc1nc2c(OCCCNCc3cccnc3)cccc2o1,4,16,> 64,,,1,0.0625
c1ccc(OCc2nc3c(OCCCNCc4cccnc4)cccc3o2)cc1,16,64,> 64,,,1,0.25
O=C(Nc1ccc(Cl)cc1)c1cc2c(OCCCNCc3cccnc3)cccc2[nH]1,> 128,> 128,> 128,32,128,,
Fc1ccc(OCc2cc3c(OCCCNCc4cccnc4)cccc3[nH]2)cc1,> 128,128,> 128,32,128,,
Fc1cccc(F)c1OCc1nc2c(OCCCNCc3cccnc3)cccc2o1,64,64,> 64,,,4,1
CCOC(=O)c1cc2c(OCCCNCc3cccnc3)cccc2[nH]1,> 128,> 128,> 128,32,64,,
O=C(Nc1cccc(F)c1)c1cc2c(OCCCNCc3cccnc3)cccc2[nH]1,128,128,> 128,32,64,,
O=C(Nc1ccccc1Cl)c1cc2c(OCCCNCc3cccnc3)cccc2[nH]1,> 128,> 128,> 128,2,128,,
Fc1ccc(OCc2nc3c(OCCCNCc4cccnc4)cccc3o2)c(F)c1F,0.25,64,> 64,,,0.25,0.25
O=C(Nc1ccccc1)c1cc2c(OCCCNCc3cccnc3)cccc2[nH]1,> 128,> 128,> 128,32,64,,
Fc1cc(F)c(OCc2nc3c(OCCCNCc4cccnc4)cccc3o2)c(F)c1,16,16,64,,,1,1
OC(Cn1cncn1)(Cn1cncn1)c1ccc(F)cc1F [FLUCONAZOLE],0.25,1,> 64,16,1,4,4
O=[N+]([O-])c1cccc(OCc2nc3c(OCCCNCc4cccnc4)cccc3o2)c1,> 64,> 64,> 64,,,4,0.25
Fc1ccc(OCc2nc3c(OCCCNCc4cccnc4)cccc3o2)c(F)c1,1,16,> 64,,,0.25,1
Cc1c(COc2ccc(F)c(F)c2F)oc2cccc(OCCCNCc3cccnc3)c12,0.125,0.5,16,2,1,0.0625,0.125
Fc1ccc(OCc2cc3c(OCCCNCc4cccnc4)cccc3[nH]2)c(F)c1,> 128,64,> 128,8,32,,
O=C(Nc1ccc(F)c(F)c1)c1cc2c(OCCCNCc3cccnc3)cccc2[nH]1,> 128,128,> 128,16,32,,
c1ccc(SCc2cc3c(OCCCNCc4cccnc4)cccc3[nH]2)cc1,128,64,> 128,8,64,,
